These are literature values, as cited in patent US20160375234A1, “[…] METHODS AND COMPOSITIONS FOR DIAGNOSING AND TREATING BREAST CONDITIONS” (ATOSSA GENETIC INC., priority 2014, published 2016).

In the series the test system is early-stage, HER2-overexpressing or -amplified breast cancer. The note with it: patients with early-stage, presurgical.

Turning to `CS(=O)(=O)CCNCc1ccc(-c2ccc3ncnc(Nc4ccc(OCc5cccc(F)c5)c(Cl)c4)c3c2)o1` [lapatinib], the “growth of breast premalignancy (including ADH and DCIS) and invasive cancer” value is recorded as “suppressed growth”.
